Here are results for 13 molecules from US20240025863A1, “SOS1 PROTEIN DEGRADERS, PHARMACEUTICAL COMPOSITIONS THEREOF, AND THEIR THERAPEUTIC APPLICATIONS” (BioTheryX, Inc., priority 2020, published 2024).

Common to all, as to type: cell-based
One assay relates to H358 cells (G12C). The assay is described as follows: Cell viability assay (CellTiter-Glo), H358 cells. The note with it: Homo sapiens, NCI-H358, 72 h; H358 cells, 3 days incubation, CellTiter-Glo luminescence; read-out: Inhibition of Cancerous Cells IC50 H358 (G12C). Put shortly:
(§1)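 Seeding used reduced-serum (2.5% FBS) medium, RPMI 1640 for H358 and SW48 and DMEM for Lovo and SW480. Compound or DMSO was applied for 3 days at 37 °C; CellTiter-Glo was added and luminescence recorded after 10 min shaking.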

The subject of another assay is SW480 cells (G12V). The assay is described as follows: Cell viability assay (CellTiter-Glo), SW480 cells. The note with it: Homo sapiens, 72 h; SW480 cells, 3 days incubation, CellTiter-Glo luminescence; read-out: Inhibition of Cancerous Cells IC50 SW480 (G12V). Put shortly: as §1
In general terms: ATP-based viability assays read luminescence as a measure of living cells.

For the next assay, the system named is Lovo cells (G13D). The assay is described as follows: Cell viability assay (CellTiter-Glo), Lovo cells. The following applies: Homo sapiens, 72 h; Lovo cells, 3 days incubation, CellTiter-Glo luminescence; read-out: Inhibition of Cancerous Cells IC50 Lovo (G13D). The method in brief:
as §1

For a further assay, the system named is AsPC-1 cells (G12D). Briefly: Cell viability assay (CellTiter-Glo), AsPC-1 cells. The following applies: Homo sapiens, ASPC1, 72 h, 3 days incubation, CellTiter-Glo luminescence, read-out: Inhibition of Cancerous Cells IC50 AsPC-1 (G12D). The procedure:
H358, H23, SW48, and AsPC-1 cells were cultured in RPMI 1640 media supplemented with 10% fetal bovine serum, streptomycin, and penicillin. Lovo and SW480 cells were cultured in DMEM media supplemented with 10% fetal bovine serum, streptomycin, and penicillin. The cell lines were plated in their respective medium supplemented with 2.5% fetal bovine serum, streptomycin, and penicillin. All cell lines were plated in white walled 96-well plates at 2,000 cells/well or 384-well plates at 500 cells/well, except Lovo, which were plated at 4,000 or 1,000 cells/well, respectively. The cells were incubated in DMSO (control) or a compound for 3 days at 37° C. under 5% CO2. A CELLTITER-GLO® reagent (100 μL) was then added to each well. After a 10 min incubation with shaking, luminescence was measured using an ENVISION® multimode plate reader.

For another assay, the system named is SW48 cells (wt). Briefly: Cell viability assay (CellTiter-Glo), SW48 cells. The note with it: Homo sapiens, 72 h; SW48 cells, 3 days incubation, CellTiter-Glo luminescence; read-out: Inhibition of Cancerous Cells IC50 SW48 (wt). Put shortly:
as §1

As usually defined, the IC50 is the concentration at which inhibition is half-maximal.

In the case of `COc1cc2c(N[C@H](C)c3cccc(Br)c3)nc(C)nc2cc1OCCCCN1CCN(C(=O)COc2cc3c(cc2F)C(=O)N(C2CCC(=O)NC2=O)C3)CC1` (stereo partly drawn) [Compound A29, 3-(5-(2-(4-(4-((4-(((R)-1-(3-Bromophenyl)ethyl)amino)-6-methoxy-2-methyl-quinazolin-7-yl)oxy)butyl)piperazin-1-yl)-2-oxoethoxy)-6-fluoro-1-oxoisoindolin-2-yl)-piperidine-2,6-dione], the IC50 in the assay with H358 cells (G12C) was 6.8 µM; in the assay with SW480 cells (G12V), 5.7 µM; in the assay with Lovo cells (G13D) it was 0.73 µM; in the assay on AsPC-1 cells (G12D) it was more than 10 µM; in the assay with SW48 cells (wt) it was 0.89 µM.
Taken in the same sequence, the figures for `COc1cc2c(N[C@H](C)c3cccc(Br)c3)nc(C)nc2cc1OCCCCCCCCCCNc1cccc2c1CN(C1CCC(=O)NC1=O)C2=O` (stereo partly drawn) [Compound A62, 3-(4-((10-((4-(((R)-1-(3-Bromophenyl)ethyl)amino)-6-methoxy-2-methyl-quinazolin-7-yl)oxy)decyl)amino)-1-oxoisoindolin-2-yl)piperidine-2,6-dione] were more than 10 µM, 1.3 µM, 4 µM, more than 10 µM and 2.4 µM.
Consider `COc1cc2c(N[C@H](C)c3cccc(Br)c3)nc(C)nc2cc1OCCCCCCCCCCCNc1cccc2nc(C)n(C3CCC(=O)NC3=O)c(=O)c12` (stereo partly drawn) [Compound A46, 3-(5-((11-((4-(((R)-1-(3-Bromophenyl)ethyl)amino)-6-methoxy-2-methyl-quinazolin-7-yl)oxy)undecyl)amino)-2-methyl-4-oxoquinazolin-3(4H)-yl)piperidine-2,6-dione], for which the IC50 was more than 10 µM in the assay with H358 cells (G12C); 0.72 µM in the assay with SW480 cells (G12V); 0.99 µM in the assay with Lovo cells (G13D); more than 10 µM in the assay on AsPC-1 cells (G12D); 2.7 µM in the assay with SW48 cells (wt).
Consider `COc1cc2c(N[C@H](C)c3cccc(Br)c3)nc(C)nc2cc1OCCCCCCN1CCN(CC#Cc2cc3c(cc2F)C(=O)N(C2CCC(=O)NC2=O)C3)CC1` (stereo partly drawn) [Compound A43, 3-(5-(3-(4-(6-((4-(((R)-1-(3-Bromophenyl)ethyl)amino)-6-methoxy-2-methyl-quinazolin-7-yl)oxy)hexyl)piperazin-1-yl)prop-1-yn-1-yl)-6-fluoro-1-oxoisoindolin-2-yl)-piperidine-2,6-dione], for which the IC50 in the assay on H358 cells (G12C) worked out at 1.3 µM; in the assay with SW480 cells (G12V), 0.44 µM; in the assay with Lovo cells (G13D), 0.34 µM; in the assay with AsPC-1 cells (G12D), 0.83 µM; with SW48 cells (wt), 0.62 µM.
For the molecule `CN[C@@H](C)C(=O)N[C@H](C(=O)N1CCC[C@H]1c1nc(C(=O)c2cccc(OCCCCCCOc3cc4nc(C)nc(N[C@H](C)c5cccc(Br)c5)c4cc3OC)c2)cs1)C1CCCCC1` [Compound B1, (S)—N—((S)-2-((S)-2-(4-(3-((6-((4-(((R)-1-(3-bromophenyl)ethyl)amino)-6-methoxy-2-methylquinazolin-7-yl)oxy)hexyl)oxy)benzoyl)thiazol-2-yl)pyrrolidin-1-yl)-1-cyclohexyl-2-oxoethyl)-2-(methylamino)propanamide], the IC50 is 2.4 µM with H358 cells (G12C); 0.98 µM in the assay on SW480 cells (G12V); 0.72 µM in the assay on Lovo cells (G13D); 3 µM in the assay on AsPC-1 cells (G12D); 1.1 µM in the assay on SW48 cells (wt).
For `COc1cc2c(N[C@H](C)c3cccc(Br)c3)nc(C)nc2cc1OCCCCCCCNc1cccc2nc(C)n(C3CCC(=O)NC3=O)c(=O)c12` (stereo partly drawn) [Compound A47, 3-(5-((7-((4-(((R)-1-(3-Bromophenyl)ethyl)amino)-6-methoxy-2-methyl-quinazolin-7-yl)oxy)heptyl)amino)-2-methyl-4-oxoquinazolin-3(4H)-yl)piperidine-2,6-dione], the IC50 in the assay with H358 cells (G12C) came to 3 µM; in the assay with SW480 cells (G12V), 0.74 µM; with Lovo cells (G13D), 0.91 µM; in the assay with AsPC-1 cells (G12D), 3.7 µM; with SW48 cells (wt) it was 1.4 µM.
Taken in the same sequence, the figures for `COc1cc2c(N[C@H](C)c3cccc(Br)c3)nc(C)nc2cc1OCCN1CCN(CCN2CCC(c3cc(F)cc4c3CN(C3CCC(=O)NC3=O)C4=O)CC2)CC1` (stereo partly drawn) [Compound A66, 3-(4-(1-(2-(4-(2-((4-(((R)-1-(3-Bromophenyl)ethyl)amino)-6-methoxy-2-methyl-quinazolin-7-yl)oxy)ethyl)piperazin-1-yl)ethyl)piperidin-4-yl)-6-fluoro-1-oxoisoindolin-2-yl)piperidine-2,6-dione] were 8 µM, 9.7 µM, 5.8 µM, more than 10 µM and 3.8 µM.
Taken in the same sequence, the figures for `COc1cc2c(N[C@H](C)c3cccc(Br)c3)nc(C)nc2cc1OCCN1CCN(CCN2CCC(c3cc4c(cc3F)C(=O)N(C3CCC(=O)NC3=O)C4)CC2)CC1` (stereo partly drawn) [Compound A67, 3-(5-(1-(2-(4-(2-((4-(((R)-1-(3-Bromophenyl)ethyl)amino)-6-methoxy-2-methyl-quinazolin-7-yl)oxy)ethyl)piperazin-1-yl)ethyl)piperidin-4-yl)-6-fluoro-1-oxoisoindolin-2-yl)piperidine-2,6-dione] were 1.7 µM, 2.7 µM, 1 µM, 2.1 µM and 1.1 µM.
Taken in the same sequence, the figures for `CN[C@@H](C)C(=O)N[C@H](C(=O)N1CCC[C@H]1c1nc(C(=O)c2cccc(OCCCCCCCCOc3cc4nc(C)nc(N[C@H](C)c5cccc(Br)c5)c4cc3OC)c2)cs1)C1CCCCC1` [Compound B2, (S)—N—((S)-2-((S)-2-(4-(3-((8-((4-(((R)-1-(3-Bromophenyl)ethyl)amino)-6-methoxy-2-methylquinazolin-7-yl)oxy)octyl)oxy)benzoyl)thiazol-2-yl)pyrrolidin-1-yl)-1-cyclohexyl-2-oxoethyl)-2-(methylamino)propanamide] were 0.98 µM, 0.5 µM, 0.48 µM, 1.2 µM and 0.98 µM.
Turning to `COc1cc2c(N[C@H](C)c3cc(N)cc(C(F)(F)F)c3)nc(C)nc2cc1OCCCCCCCN1CCC(c2cc3c(cc2F)C(=O)N(C2CCC(=O)NC2=O)C3)CC1` (stereo partly drawn) [Compound A28, 3-(5-(1-(7-((4-(((R)-1-(3-Amino-5-(trifluoromethyl)phenyl)ethyl)amino)-6-methoxy-2-methylquinazolin-7-yl)oxy)heptyl)piperidin-4-yl)-6-fluoro-1-oxoisoindolin-2-yl)-piperidine-2,6-dione], the IC50 was found to be 1.2 µM in the assay with H358 cells (G12C); 0.5 µM with SW480 cells (G12V); 0.55 µM with Lovo cells (G13D); 1.1 µM in the assay with AsPC-1 cells (G12D); 0.44 µM in the assay with SW48 cells (wt).
Regarding `COc1cc2c(N[C@H](C)c3cccc(Br)c3)nc(C)nc2cc1OCCCCCCC(=O)N1CCC(c2cc3c(cc2F)C(=O)N(C2CCC(=O)NC2=O)C3)CC1` (stereo partly drawn) [Compound A60, 3-(5-(1-(7-((4-(((R)-1-(3-Bromophenyl)ethyl)amino)-6-methoxy-2-methyl-quinazolin-7-yl)oxy)heptanoyl)piperidin-4-yl)-6-fluoro-1-oxoisoindolin-2-yl)piperidine-2,6-dione], the IC50 was more than 10 µM with H358 cells (G12C); 4 µM with SW480 cells (G12V); 4.3 µM in the assay on Lovo cells (G13D); 8.4 µM in the assay on AsPC-1 cells (G12D); 3.8 µM in the assay with SW48 cells (wt).
Taken in the same sequence, the figures for `COc1cc2c(N[C@H](C)c3cccc(Br)c3)nc(C)nc2cc1OCCCCCCCCC(=O)N1CCC(c2cc(F)cc3c2CN(C2CCC(=O)NC2=O)C3=O)CC1` (stereo partly drawn) [Compound A61, 3-(4-(1-(9-((4-(((R)-1-(3-Bromophenyl)ethyl)amino)-6-methoxy-2-methyl-quinazolin-7-yl)oxy)nonanoyl)piperidin-4-yl)-6-fluoro-1-oxoisoindolin-2-yl)piperidine-2,6-dione] were more than 10 µM, 5.2 µM, 6.6 µM, more than 10 µM and 5.9 µM.
Taken in the same sequence, the figures for `COc1cc2c(N[C@H](C)c3cccc(Br)c3)nc(C)nc2cc1OCCCCCCCCCCCCCOc1cc(-c2scnc2C)ccc1CNC(=O)[C@@H]1C[C@@H](O)CN1C(=O)[C@@H](NC(C)=O)C(C)(C)C` [Compound D14, (2S,4R)-1-((S)-2-Acetamido-3,3-dimethylbutanoyl)-N-(2-((13-((4-(((R)-1-(3-bromophenyl)ethyl)amino)-6-methoxy-2-methylquinazolin-7-yl)oxy)tridecyl)oxy)-4-(4-methyl-thiazol-5-yl)benzyl)-4-hydroxypyrrolidine-2-carboxamide] were more than 10 µM, 3.3 µM, 0.64 µM, more than 10 µM and more than 10 µM.
